Experimental data from ChEMBL document CHEMBL1250532, “Structure-based virtual screening of novel tubulin inhibitors and their characterization as anti-mitotic agents” (Bioorg Med Chem, 2010).

Legend:
[1] = Inhibition of polymerization of tubulin by turbidimetry
HL-60 [2] = test: Antiproliferative activity against human HL60 cells after 48 hrs by MTT assay; assay type: functional, cell-based; conditions: HL-60, 48 h
HL-60 [3] = test: Induction of apoptosis in human HL60 cells assessed as fractions of fragmented DNA at 0.25 uM after 48 hrs using propidium iodide staining by flow cytometry (reference value: 1.66%); assay type: functional
HL-60 [4] = test: Cell cycle arrest in human HL60 cells assessed as accumulation at G2/M phase at 0.1 uM after 24 hrs using propidium iodide staining by flow cytometry (reference value: 22.26%); assay type: functional
HL-60 [5] = test: Induction of apoptosis in human HL60 cells after 48 hrs using propidium iodide by flow cytometry; assay type: functional, cell-based; conditions: for EC50: HL-60, 48 h
HL-60 [6] = test: Induction of apoptosis in human HL60 cells assessed as fractions of fragmented DNA at 0.1 uM after 48 hrs using propidium iodide staining by flow cytometry (reference value: 1.66%); assay type: functional
HL-60 [7] = test: Cell cycle arrest in human HL60 cells assessed as accumulation at S phase at 0.1 uM after 24 hrs using propidium iodide staining by flow cytometry (reference value: 17.62%); assay type: functional
HL-60 [8] = test: Cell cycle arrest in human HL60 cells assessed as accumulation at G0/G1 phase at 0.1 uM after 24 hrs using propidium iodide staining by flow cytometry (reference value: 55.47%); assay type: functional
HL-60 [9] = test: Ratio of compound EC50 to E7010 EC50 for human HL60 cells; assay type: functional
HL-60 [10] = test: Induction of apoptosis in human HL60 cells assessed as fractions of fragmented DNA at 0.1 uM after 24 hrs using propidium iodide staining by flow cytometry (reference value: 0.53%); assay type: functional
HL-60 [11] = test: Induction of apoptosis in human HL60 cells assessed as fractions of fragmented DNA at 0.05 uM after 48 hrs using propidium iodide staining by flow cytometry (reference value: 1.66%); assay type: functional
HL-60 [12] = test: Induction of apoptosis in human HL60 cells assessed as fractions of fragmented DNA at 0.5 uM after 48 hrs using propidium iodide staining by flow cytometry (reference value: 1.66%); assay type: functional
HL-60 [13] = test: Induction of apoptosis in human HL60 cells assessed as fractions of fragmented DNA at 1 uM after 48 hrs using propidium iodide staining by flow cytometry (reference value: 1.66%); assay type: functional
HL-60 [14] = test: Induction of apoptosis in human HL60 cells assessed as fractions of fragmented DNA at 0.5 uM after 24 hrs using propidium iodide staining by flow cytometry (reference value: 0.53%); assay type: functional
HL-60 [15] = test: Cell cycle arrest in human HL60 cells assessed as accumulation at S phase at 0.5 uM after 24 hrs using propidium iodide staining by flow cytometry (reference value: 17.62%); assay type: functional
HL-60 [16] = test: Cell cycle arrest in human HL60 cells assessed as accumulation at G2/M phase at 0.5 uM after 24 hrs using propidium iodide staining by flow cytometry (reference value: 22.26%); assay type: functional
HL-60 [17] = test: Cell cycle arrest in human HL60 cells assessed as accumulation at G0/G1 phase at 0.5 uM after 24 hrs using propidium iodide staining by flow cytometry (reference value: 55.47%); assay type: functional

Work on `COc1cc(C2C=C(c3cccc(NC(C)=O)c3)Nc3ncnn32)cc(OC)c1OC` (configuration not stated) yielded an IC50 [1] greater than 25000 nM and an IC50 (HL-60 [2]) of 330 nM.
In the case of `COc1cc(C2C=C(c3ccc(C)cc3)Nc3ncnn32)cc(OC)c1OC` (configuration not stated), the IC50 [1] is reported as 12800 nM, the Activity (HL-60 [3]) is reported as 90.56% and the IC50 (HL-60 [2]) is reported as 130 nM. For the same molecule, the Activity (HL-60 [4]) was 48.64%, the Activity (HL-60 [5]) was “Dose-dependent effect” and the EC50 (HL-60 [5]) was 70 nM. It also gave an Activity (HL-60 [6]) of 89.85%, an Activity (HL-60 [7]) of 16.5% and an Activity (HL-60 [8]) of 9.7%. The “Ratio EC50” value (HL-60 [9]) was 2, the Activity (HL-60 [10]) was 22.94% and the Activity (HL-60 [11]) was 4.61%.
`CCc1ccc(C2=CC(c3cc(OC)c(OC)c(OC)c3)n3ncnc3N2)cc1` (configuration not stated) gave an IC50 [1] greater than 25000 nM and an IC50 (HL-60 [2]) of 370 nM.
`COc1cc(C2C=C(c3cccs3)Nc3ncnn32)cc(OC)c1OC` (configuration not stated) showed an IC50 [1] of 12800 nM, an Activity (HL-60 [12]) of 10.35% and an Activity (HL-60 [13]) of 85.69%. For the same molecule, the IC50 (HL-60 [2]) was 100 nM, the Activity (HL-60 [14]) was 0.48% and the Activity (HL-60 [5]) was “Dose-dependent effect”. The EC50 (HL-60 [5]) was 780 nM, the Activity (HL-60 [15]) was 15.16% and the Activity (HL-60 [16]) was 25.93%. It also gave an Activity (HL-60 [17]) of 53.87% and an Activity (HL-60 [11]) of 6.03%.
Molecule `COc1ccc(C2=CC(c3cc(OC)c(OC)c(OC)c3)n3ncnc3N2)cc1OC` (configuration not stated) has an IC50 [1] greater than 24000 nM and an IC50 (HL-60 [2]) of 340 nM.
Work on `COc1cc(C(=O)N2c3ccccc3CC2C)cc(OC)c1OC` (configuration not stated) yielded an IC50 (HL-60 [2]) of 3200 nM.
For `COc1cc(C(=O)c2c(-c3ccccc3)cc3ccccn23)cc(OC)c1OC`, the IC50 [1] was 20000 nM and the IC50 (HL-60 [2]) was 600 nM.
In the case of `COc1ccc(/C=C(/C(=O)c2cc(OC)c(OC)c(OC)c2)c2nc3ccccc3o2)cc1`, the IC50 (HL-60 [2]) is reported as 2400 nM.
Molecule `COc1cc(/C=C(/C(=O)O)c2ccc(-c3ccccc3)cc2)cc(OC)c1OC` has an IC50 (HL-60 [2]) of 2400 nM.
Work on `COc1cc(C(=O)N2CCCc3ccccc32)cc(OC)c1OC` yielded an IC50 (HL-60 [2]) of 2000 nM.
In the case of `COc1ccc(C2=CC(c3cc(OC)c(OC)c(OC)c3)n3ncnc3N2)cc1` (configuration not stated), the IC50 [1] is reported as 10400 nM, the Activity (HL-60 [3]) is reported as 92.36% and the IC50 (HL-60 [2]) is reported as 190 nM. For the same molecule, the Activity (HL-60 [4]) was 24.39%, the Activity (HL-60 [5]) was “Dose-dependent effect” and the EC50 (HL-60 [5]) was 80 nM. For the same molecule, the Activity (HL-60 [6]) was 77.49%, the Activity (HL-60 [7]) was 18.82% and the Activity (HL-60 [8]) was 51.67%. The “Ratio EC50” value (HL-60 [9]) was 2, the Activity (HL-60 [10]) was 0.93% and the Activity (HL-60 [11]) was 4.94%.
`COc1cc(C2C=C(c3ccc(Cl)cc3)Nc3ncnn32)cc(OC)c1OC` (configuration not stated) gave an IC50 [1] greater than 25000 nM and an IC50 (HL-60 [2]) of 390 nM.
Work on `COc1cc(C2C=C(c3ccccc3)Nc3ncnn32)cc(OC)c1OC` (configuration not stated) yielded an IC50 [1] of 13700 nM, an Activity (HL-60 [3]) of 60.88% and an IC50 (HL-60 [2]) of 170 nM. For the same molecule, the Activity (HL-60 [4]) was 25.82%, the Activity (HL-60 [5]) was “Dose-dependent effect” and the EC50 (HL-60 [5]) was 220 nM. It also gave an Activity (HL-60 [6]) of 4.06%, an Activity (HL-60 [7]) of 15.92% and an Activity (HL-60 [8]) of 53.51%. The “Ratio EC50” value (HL-60 [9]) was 2, the Activity (HL-60 [10]) was 0.81% and the Activity (HL-60 [11]) was 4.32%.
`COc1cc(C(=O)/C(=C/c2cccnc2)c2nc3ccccc3o2)cc(OC)c1OC` showed an IC50 (HL-60 [2]) of 1700 nM.
With `COc1cc(C(=O)N2CCc3ccccc32)cc(OC)c1OC` the IC50 (HL-60 [2]) was 2000 nM.
For `COc1cc(C(=O)c2c(C)cn3c(CCC#N)cccc23)cc(OC)c1OC`, the IC50 [1] was 5000 nM and the IC50 (HL-60 [2]) was 1400 nM.
For `COc1cc(/C=C(/C(=O)c2cc(OC)c(OC)c(OC)c2)c2nc3ccccc3o2)cc(OC)c1OC`, the IC50 (HL-60 [2]) was 1700 nM.
With `COc1ccccc1NC(=O)CSc1nnc(-c2cc(OC)c(OC)c(OC)c2)n1-c1ccc(C)cc1` the IC50 (HL-60 [2]) was 2400 nM.
